Data as given in patent US9303092B2, “Methamphetamine-like hapten compounds, linkers, carriers and compositions and uses thereof” (The Board of Trustees of the University of Arkansas, priority 2000, dated 2016).

Tests used:
mAb4G9 = test: RIA binding specificity, relative potency to METH; parameters: species or system mouse; conditions: RIA IC50 value for METH/RIA IC50 value for test ligand
mAb6H4 = test: RIA binding specificity, relative potency to METH; parameters: species or system mouse; conditions: RIA IC50 value for METH/RIA IC50 value for test ligand
mAb6H8 = test: RIA binding specificity, relative potency to METH; parameters: species or system mouse; conditions: RIA IC50 value for METH/RIA IC50 value for test ligand
[1] = after intravenous (+)-methamphetamine; cited from earlier work
[2] = (+)-Methamphetamine and (+)-amphetamine pharmacokinetic studies in serum and brain with and without mAb6H4; conditions: for AUC(0-t): male, Sprague-Dawley, rat, in vivo, Serum
Procedure: This allowed the administration of approximately 100 μCi per rat by injection of 1 μl/g of rat body weight.
Male Sprague-Dawley rats were randomly placed into two groups. […] Ethyl ether was used for anesthesia so that hemodynamic stability could be maintained before animal sacrifice. Immediately after blood collection, the rats were decapitated and the brain was removed. The brain was rinsed with saline, weighed, and placed in liquid nitrogen within 3 min of decapitation. Hematocrit values were obtained for each animal. The blood was allowed to clot and serum was obtained after centrifugation. The serum and brain tissues were stored at −80° C. until analyzed.
The second group was the mAb-treatment group. All aspects of the experiment were same as those described for the control group, with the following exception. […] The mAb was given via the jugular venous catheter in an 8-ml volume at 2 ml/min. Because the experimental protocol was the same up until the mAb was administered, the time points before 30 min were not repeated in this group.
For serum analysis, 300 μl of guanidine HCl was added to 200-μl of each serum sample to denature the proteins. The samples were vortexed and placed on a gentle shaker for 30 min. […] After sample application, the cartridges were centrifuged at 230 g for 1 min, washed with 1 ml of water, and then centrifuged. […] Then, 1 ml of methanol:acetic acid (98:2) was added, followed by centrifugation.
A 200-μl aliquot was then added to 300 μl of 8 M guanidine HCl. The mixture was vortexed and gently shaked for 30 min. […] The mixture was vortexed, placed on ice for 5 min, and centrifuged at 12,500 g for 5 min.
Supernatants from the brain samples were applied to conditioned extraction cartridges and then centrifuged at 600 g for 4 min. The brain precipitates left over from the 12,500 g centrifugation were resuspended in 500 μl of water and centrifuged at 12,500 g for 3 min. The supernatants were then added to their respective extraction columns and centrifuged at 600 g for 4 min. This was followed by a 1-ml water wash, with another 4 min centrifugation at 600 g. Finally, the cartridges were placed in siliconized test tubes for sample collection. The elution process was as described for the serum samples.
After elution, the samples were taken to dryness over 3 h in a vacuum centrifuge (Savant Instruments, Inc., Farmingdale, N.Y.) with no heat or cryopumping.
The data were fit to both two- and three-compartment i.v. bolus models, with y (predicted concentration), 1/y, or 1/y^2 weighting. The best-fit line was chosen by visual inspection and analysis of the residuals. […] All pharmacokinetic analysis was performed with the use of WinNonlin V3.0 (Pharsight Corporation, Mountain View, Calif.).

[3] = system: discriminative stimulus effects of (+)-methamphetamine; test: Drug discrimination in pigeons; conditions: i.m.
Procedure: The pigeons used in these experiments had performed in experiments previously.
Training continued for 40 min or until the pigeons had received 20 reinforcers, whichever occurred first. […] In the determination of cumulative dose-response curves, a dose of drug was administered and the pigeon was placed in the chamber for 10 min, after which the chamber and key lights were illuminated. The pigeon was tested for 5 min or until one food reinforcer had been delivered, whichever occurred first. Food was delivered following the completion of 20 responses on one of the two keys. After food had been delivered, or the session had timed out, the bird was removed from the chamber, a higher dose was administered, and the process was repeated.
Because only a few birds were still available for these experiments, the data for days 1-2 and days 7-8 were combined.
All doses are expressed as the salts.

[4] = system: discriminative stimulus effects of (+)-methamphetamine; test: Drug discrimination in rats; conditions: i.p., group III
[5] = from Riviere et al. (1999); cited from earlier work
[6] = Preliminary studies of high i.v. (+)-methamphetamine doses
[7] = system: methamphetamine-induced locomotor activity; test: Anti-METH Fab treatment of methamphetamine-induced behavioral effects; type: in vivo, rat; conditions: 1 mg/kg iv methamphetamine, treatment at 30 min
Procedure: Rats (n=4 per group) were administered saline (left most bar) or 1.0 mg/kg d-methamphetamine as an intravenous bolus dose. When drug effects were maximizing at 30 minutes, they were treated with saline (control), an anti-phencyclidine monoclonal antibody Fab fragment (anti-PCP), or an anti-d-methamphetamine-specific monoclonal antibody Fab fragment (anti-methamphetamine).

[8] = system: (+)methamphetamine induced effects; test: Pretreatment with anti-(+)methamphetamine monoclonal antibody before 1 mg/kg (+)methamphetamine challenge; type: in vivo, rat; conditions: 1.0 mg/kg i.v.
Procedure: Rats (n=7/group) were administered a dose of […] of anti-methamphetamine monoclonal antibody on day 1. The following day they were administered i.v. (+)methamphetamine (1.0 mg/kg) 3 days apart on two occasions to stabilize locomotor responses and to minimize sensitization.

[9] = system: (+)-methamphetamine-induced locomotor activity; test: (+)-Methamphetamine locomotor activity studies, rat overdose model, mAb at t=30 min; type: in vivo
Procedure: The parameters of distance traveled (in centimeters or meters), number of rearing events, and time spent moving (in seconds) were individually quantified for each animal. […] Briefly, animals were placed in polyethylene chambers that contained a bedding of dark-gray clay. Animal behavior was videotaped, and the video images were digitized and quantitated in 4-min intervals by EthoVision software (Noldus Information Technology Inc., Sterling, Va.). The duration of drug action was calculated for each parameter starting at 30 min (time of treatment) and until the locomotor activity returned to baseline.
Rats were habituated to the behavioral monitoring chambers before the start of the experimental protocol. This was accomplished by placing the rats in the chambers for a minimum of 3 h per day for 4-6 consecutive days. […] The rats in each group were dosed every three days for a total of 10 days.
On day 1, all groups received saline followed at 30 min by mAb buffer to obtain baseline (non-drug-induced) behavior.
All control buffer and mAb solutions were administered via the jugular venous catheter in an 8-ml volume at 2 ml/min. Three days after the end of the experimental protocol for the 1-mg/kg group, locomotor activity from a second saline administration was monitored to determine whether any changes had occurred in baseline activity.
All other aspects of the protocol were as just described.

Row | Compound | Relative Potency to METH, mAb4G9 (mAb4G9) | Relative Potency to METH, mAb6H4 (mAb6H4) | Relative Potency to METH, mAb6H8 (mAb6H8) | also measured
1 | CNC[C@H](O)c1cccc(O)c1 [/-phenylphrine] | <0.001 | 0.001 | <0.001 | –
2 | (+)norpseudoephedrine | <0.001 | <0.001 | <0.001 | –
3 | NC[C@H](O)c1ccc(O)c(O)c1 [norepinepherine] | <0.001 | <0.001 | <0.001 | –
4 | NCCc1ccccc1 [β-phenylethylamine] | 0.001 | <0.001 | <0.001 | –
5 | CNC(C)Cc1ccc(O)cc1 (centres unmarked) [4-OH-METH] | 0.106 | 0.588 | 0.294 | –
6 | CC(N)Cc1ccccc1 (single isomer, unassigned; (+)) [(+)AMP, (+)-amphetamine] | – | – | – | time to peak plasma levels of (+)-amphetamine [1]: ≤ 20 min; AUC38 min-[…] Treated ([2]; Brain, 1-mol equivalent dose of mAb at 30 min): 284 ng·h/g; AUC38 min-[…] Control ([2]; Brain, without treatment): 530 ng·h/g; AUC(0-t) ([2]; AUC38 min-[…] Control, without treatment): 55 ng·h/mL; AUC(0-t) ([2]; AUC38 min-[…] Treated, 1-mol equivalent dose of mAb at 30 min): 73 ng·h/mL; potency of (+)-methamphetamine and (+)-amphetamine compared [3]: approximately equipotent; potency of (+)-methamphetamine and (+)-amphetamine as discriminative stimuli compared [4]: nearly equipotent
7 | CNC(C)Cc1ccc2c(c1)OCO2 (single isomer, unassigned; (-)) [(−)MDMA] | 0.011 | 0.007 | 0.018 | –
8 | CC(N)C(O)c1ccccc1 (single isomer, unassigned; (+)) [(+)phenylpropanolamine] | <0.001 | <0.001 | <0.001 | –
9 | CNC[C@H](O)c1ccc(O)c(O)c1 [epinephrine] | <0.001 | <0.001 | <0.001 | –
10 | NCCc1c[nH]c2ccc(O)cc12 [serotonin] | <0.001 | <0.001 | <0.001 | –
11 | CNC(C)Cc1ccc2c(c1)OCO2 (single isomer, unassigned; (+)) [(+)MDMA, (+)-3,4-methylenedioxymethamphetamine] | 0.29 | 1.25 | 3.40 | –
12 | (+)pseudoephedrine | 0.004 | <0.001 | 0.018 | –
13 | NCCc1ccc(O)c(O)c1 [dopamine] | <0.001 | <0.001 | <0.001 | –
14 | CC(N)Cc1ccc2c(c1)OCO2 (single isomer, unassigned; (+)) [(+)MDA] | 0.090 | 0.001 | 0.024 | –
15 | CN[C@H](C)Cc1ccccc1 [(−)METH] | 0.102 | 0.030 | 0.011 | –
16 | CC(N)Cc1ccc2c(c1)OCO2 (single isomer, unassigned; (-)) [(−)MDA] | 0.002 | <0.001 | <0.001 | –
17 | CN[C@H](C)[C@@H](O)c1ccccc1 [(+)ephedrine] | <0.001 | <0.001 | <0.001 | –
18 | NCCc1ccc(O)cc1 [tyramine] | <0.001 | <0.001 | <0.001 | –
19 | (+)-methamphetamine [(+)METH] | – | – | – | t1/2dist of (+)-methamphetamine in serum [5]: 9 min; doses sometimes lethal [6]: 10 mg/kg; i.v. doses that led to self-mutilation [6]: ≥ 5.2 mg/kg; duration of action / activity, distance traveled parameter [7]: 116 ± 17 min; duration of action of (+)methamphetamine without the monoclonal antibody [8]: about 160 min; potency of (+)-methamphetamine and (+)-amphetamine compared [3]: approximately equipotent; duration of (+)-methamphetamine-induced locomotor effects following buffer ([9]; 0.3-mg/kg dose): approximately 1 h; duration of (+)-methamphetamine-induced locomotor effects following buffer ([9]; 1.0-mg/kg dose): ~2 h; duration of drug action following buffer ([9]; 3.0-mg/kg group): 4 h; potency of (+)-methamphetamine and (+)-amphetamine as discriminative stimuli compared [4]: nearly equipotent
